Results from article PMC5502478 (ACS chemical biology, 2016).

Assays:
Format in all cases: cell-based
[1] = test system: Candida glabrata ATCC 2001; assay: MIC, serial dilution antifungal assay
[2] = test system: Candida albicans ATCC 10231; conditions: compared to 1 and 2
Human erythrocytes = assay: Hemolytic assay; conditions: tested concentrations

Substance	fold improvement of MIC against C. glabrata compared to 1 [1] [fold]	fold more potent (MIC) than wild-type fermentation products 1 and 2 against C. albicans [2] [fold]	hemolytic activity relative to pneumocandin B0 (overall) (Human erythrocytes)
pneumocandin K [Compound 7]	32	4	higher hemolytic activity than pneumocandin B0
pneumocandin I [Compound 5]	32	8	comparable to pneumocandin B0
